Experimental data from PubChem BioAssay (NCI).
Where “and” joins values, the source holds several entries; their conditions need not be identical. Equal entries are not always repeated.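 Exposure lasted 48 hours, with cells grown in 96-well plates and compounds tested at five concentrations. The concentration for 50% growth inhibition is given as GI50. TGI is the concentration that stops growth completely.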

How the values were obtained:
Test in all cases: inhibition of tumour cell growth, NCI panel, 48 h
HOP-62 NSCLC = system: HOP-62 NSCLC
A549 NSCLC = system: A549 NSCLC
NCI-H226 lung = system: NCI-H226 lung
OVCAR-3 ovarian = system: OVCAR-3 ovarian
TK-10 renal = system: TK-10 renal
HOP-92 NSCLC = system: HOP-92 NSCLC
UACC-257 melanoma = system: UACC-257 melanoma
SK-OV-3 ovarian = system: SK-OV-3 ovarian
OVCAR-5 ovarian = system: OVCAR-5 ovarian
HCC-2998 colon = system: HCC-2998 colon

Row | Structure (SMILES) | TGI (HOP-62 NSCLC) | TGI (A549 NSCLC) | TGI (NCI-H226 lung) | TGI (OVCAR-3 ovarian) [µM] | TGI (TK-10 renal) | TGI (HOP-92 NSCLC) | TGI (UACC-257 melanoma) | TGI (SK-OV-3 ovarian) | TGI (OVCAR-5 ovarian) | TGI (HCC-2998 colon) | GI50 (HOP-62 NSCLC) | GI50 (A549 NSCLC) | GI50 (NCI-H226 lung) | GI50 (OVCAR-3 ovarian) | GI50 (TK-10 renal) | GI50 (HOP-92 NSCLC) [nM] | GI50 (UACC-257 melanoma) | GI50 (SK-OV-3 ovarian) | GI50 (OVCAR-5 ovarian) | GI50 (HCC-2998 colon)
1 | O=P(O)(CCP(=O)(O)c1ccccc1)c1ccccc1 | > 100 µM | > 100 µM | > 100 µM | > 100 | > 100 µM | > 100 µM | > 100 µM | > 100 µM | > 100 µM | > 100 µM |  |  |  |  |  |  |  |  |  | 
2 | O=C(c1ccccc1)C(C(=O)c1ccccc1)C1(O)C(=O)c2ccccc2C1=O | > 100 µM | > 100 µM | > 100 µM | > 100 | 55.2 µM | 64.6 µM | > 100 µM | > 100 µM | > 100 µM | > 100 µM |  |  |  |  |  |  |  |  |  | 
3 | Cn1c(=O)nc2n(-c3ccc(Cl)cc3)c3ccc(Cl)cc3nc-2c1=O | 49.5 µM | > 100 µM | 27.9 µM | 8.14 | 53.6 µM | 25.1 µM | 14.5 µM | > 100 µM | 29.6 µM | 40.6 µM |  |  |  |  |  |  |  |  |  | 
4 | CC(=O)Nc1ccc2c(c1)c(C1=C(c3cn(C)c4ccccc34)C(=O)NC1=O)cn2C | > 25 µM | > 25 µM | > 25 µM | 2.16 | > 25 µM | 12 µM | > 25 µM | > 25 µM | > 25 µM | > 25 µM | 1980 nM | 1650 nM | 3.1 µM | 723 nM | 4.21 µM | 807 | > 21.6 µM | 1.22 µM | > 25 µM | > 11200 nM
5 | COc1ccc2c(c1)/C(=C\c1c(C)nc3sc(C)cn13)C(=O)N2C | > 100 µM | > 100 µM | 15.9 µM | 3.99 | 37.8 µM | 37 µM | > 100 µM | 7.18 µM | > 100 µM | 4.68 µM | 20500 nM | 30700 nM | 2.74 µM | 1430 nM | 4.35 µM | 7420 | 21.8 µM | 2.35 µM | 19.9 µM | 1370 nM
6 | COc1ccc(Cl)cc1Nc1nc(C(F)(F)F)ccc1C(=O)N/N=C/c1c(Cl)cccc1Cl | > 100 µM | > 100 µM | > 100 µM | 4.32 | 50.8 µM | 38.4 µM | > 100 µM | > 100 µM | > 100 µM | > 100 µM | 1350 nM | > 100000 nM | 5.54 µM | 1590 nM | 6.32 µM | 3460 | > 100 µM | 7.67 µM | > 100 µM | 5370 nM
7 | CCOC(=O)[C@@]1(C)C=C2O[C@@H]3OC4(CCCCC4)O[C@@H]3C2=C2C(O)=CC=C(O)[C@]21C(=O)OC | > 68 µM | > 68 µM | > 68 µM | > 68 | > 68 µM | 33.8 µM | > 68 µM | > 68 µM | > 68 µM | > 68 µM |  |  |  |  |  |  |  |  |  | 
8 | CNc1ccc2nc3ccc(=[N+](C)C)cc-3sc2c1 | 15.7 µM and 7.92 µM | 12.1 µM and 5.21 µM | 10.8 µM and 12.4 µM |  | 7.69 µM and 14.6 µM | 29.8 µM and 5.06 µM | 4.52 µM and 1.91 µM | 18.7 µM and 19.1 µM | 6.86 µM and 4.31 µM | 15.9 µM and 18.6 µM | 2540 nM and 867 nM | 417 nM and 338 nM | 2.31 µM and 2.53 µM | 408 nM and 205 nM | 2.3 µM and 3.36 µM |  | 0.962 µM and 0.331 µM | 4.29 µM and 3.81 µM | 2.85 µM and 0.514 µM | 2840 nM and 1120 nM
9 | CN(C)c1cccc2c(S(=O)(=O)N[C@H]3CC[C@H]4[C@@H]5CCc6cc(O)ccc6[C@H]5CC[C@]34C)cccc12 | 13.9 µM | 10.7 µM | 11.2 µM | 6.26 | 9.82 µM | 7.64 µM | 11.5 µM | 74.3 µM | 13.2 µM | 14.6 µM | 3970 nM | 2510 nM | 3.02 µM | 2330 nM | 3.2 µM | 1670 | 2.51 µM | 3.83 µM | 3.09 µM | 3170 nM
10 | COc1cc([C@H]2c3cc4c(cc3O[C@@]3(O)COC(=O)[C@@H]23)OCO4)cc(OC)c1OC | > 100 µM | > 100 µM | > 100 µM | > 100 | > 100 µM | > 100 µM | > 100 µM | > 100 µM | > 100 µM | > 100 µM |  |  |  |  |  |  |  |  |  | 
11 | COc1cc(O)c([C@@H]2C[C@H](CCc3ccc(O)cc3)O[C@H](c3ccc(O)cc3)C2)c(O)c1C(=O)/C=C/c1ccc(O)cc1 | 6.02 µM | 25.1 µM | 21.5 µM | 7.16 | 13.5 µM | 4.96 µM | 13.2 µM | 6.11 µM | 12.5 µM | 1.73 µM | 2770 nM | 3330 nM | 7.04 µM | 2690 nM | 3.94 µM | 2200 | 3.82 µM | 2.74 µM | 3.81 µM | 558 nM
12 | CCOC(=O)c1ccc(NC(=O)N2CC(C)OC(C)C2)cc1 (stereo not drawn) | > 100 µM | > 100 µM | > 100 µM | > 100 | > 100 µM | > 100 µM | > 100 µM | > 100 µM | > 100 µM | > 100 µM | > 100000 nM | > 100000 nM | > 100 µM | > 100000 nM | > 100 µM | > 100000 | > 100 µM | > 100 µM | > 100 µM | > 100000 nM
